Target: Adenosine receptor A2a (Homo sapiens, UniProt P29274)
Assay: DRUGMATRIX: Adenosine A2A radioligand binding (ligand: […])
Assay type: cell membranes, HEK293, Membrane
Settings: hek293; Not Active = under 50% inhibition at 10 µM

Adenosine receptor A2a, sequence (P29274 whole entry): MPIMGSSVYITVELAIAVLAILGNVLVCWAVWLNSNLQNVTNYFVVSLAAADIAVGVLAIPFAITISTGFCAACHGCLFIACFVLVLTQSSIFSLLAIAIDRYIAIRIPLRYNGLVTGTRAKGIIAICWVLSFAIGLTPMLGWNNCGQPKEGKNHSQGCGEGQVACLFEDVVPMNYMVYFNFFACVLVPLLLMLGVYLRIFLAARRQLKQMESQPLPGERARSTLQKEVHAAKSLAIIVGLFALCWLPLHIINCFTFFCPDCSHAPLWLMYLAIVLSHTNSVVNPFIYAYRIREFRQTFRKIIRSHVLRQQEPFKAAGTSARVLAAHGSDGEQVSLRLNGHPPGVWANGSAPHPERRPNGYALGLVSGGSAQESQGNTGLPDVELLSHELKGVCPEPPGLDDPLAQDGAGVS

Compound	IC50
Nc1nc2c(ncn2COC(CO)CO)c(=O)[nH]1 [GANCICLOVIR]	Not Active
CC1=Nc2ccc(Cl)cc2S(=O)(=O)N1 [DIAZOXIDE]	Not Active
CC(C)(Oc1ccc(CCNC(=O)c2ccc(Cl)cc2)cc1)C(=O)O [BEZAFIBRATE]	Not Active
CC(C)n1c(/C=C/C(O)CC(O)CC(=O)O)c(-c2ccc(F)cc2)c2ccccc21 (centres undefined) [FLUVASTATIN]	Not Active

System: not listed separately
Assay: DRUGMATRIX: Potassium Channel [KATP] radioligand binding (ligand: [3H] Glyburide)
Assay type: cell membranes, Membrane
Settings: hit-t15; Not Active = under 50% inhibition at 10 µM

Compound	IC50	Ki
Nc1nc2c(ncn2COC(CO)CO)c(=O)[nH]1 [GANCICLOVIR]	Not Active	Not Active
CC1=Nc2ccc(Cl)cc2S(=O)(=O)N1 [DIAZOXIDE]	Not Active	Not Active
CC(C)(Oc1ccc(CCNC(=O)c2ccc(Cl)cc2)cc1)C(=O)O [BEZAFIBRATE]	Not Active	Not Active
CC(C)n1c(/C=C/C(O)CC(O)CC(=O)O)c(-c2ccc(F)cc2)c2ccccc21 (centres undefined) [FLUVASTATIN]	Not Active	Not Active

Target: T1, Substance-K receptor (Homo sapiens, UniProt P21452); also: in other assays of this panel Not Active means under 50% inhibition at 10 µM
T1 sequence (P21452 whole entry): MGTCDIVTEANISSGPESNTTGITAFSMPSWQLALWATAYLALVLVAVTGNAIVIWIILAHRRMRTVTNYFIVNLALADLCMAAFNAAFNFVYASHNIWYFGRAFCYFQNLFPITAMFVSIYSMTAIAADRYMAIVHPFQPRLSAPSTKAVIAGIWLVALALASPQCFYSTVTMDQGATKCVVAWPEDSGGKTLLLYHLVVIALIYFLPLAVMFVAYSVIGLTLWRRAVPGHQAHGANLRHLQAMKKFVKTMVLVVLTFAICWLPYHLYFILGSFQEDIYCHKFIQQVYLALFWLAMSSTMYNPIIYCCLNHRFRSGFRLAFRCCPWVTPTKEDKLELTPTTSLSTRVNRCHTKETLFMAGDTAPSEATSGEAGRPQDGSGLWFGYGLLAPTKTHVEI
Assay: not given
Assay type: cell membranes, CHO, Membrane
Settings: cho

Compound	IC50
Nc1nc2c(ncn2COC(CO)CO)c(=O)[nH]1 [GANCICLOVIR]	Not Active
CC1=Nc2ccc(Cl)cc2S(=O)(=O)N1 [DIAZOXIDE]	Not Active
CC(C)(Oc1ccc(CCNC(=O)c2ccc(Cl)cc2)cc1)C(=O)O [BEZAFIBRATE]	Not Active
CC(C)n1c(/C=C/C(O)CC(O)CC(=O)O)c(-c2ccc(F)cc2)c2ccccc21 (centres undefined) [FLUVASTATIN]	Not Active

Target: T2, Angiotensin-converting enzyme (Oryctolagus cuniculus, UniProt P12822);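 also: enzymatic inhibition of angiotensin-converting enzyme measured with FAPGG as the substrate; in other assays of this panel Not Active means under 50% inhibition at 10 µM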
T2 sequence (P12822 whole entry): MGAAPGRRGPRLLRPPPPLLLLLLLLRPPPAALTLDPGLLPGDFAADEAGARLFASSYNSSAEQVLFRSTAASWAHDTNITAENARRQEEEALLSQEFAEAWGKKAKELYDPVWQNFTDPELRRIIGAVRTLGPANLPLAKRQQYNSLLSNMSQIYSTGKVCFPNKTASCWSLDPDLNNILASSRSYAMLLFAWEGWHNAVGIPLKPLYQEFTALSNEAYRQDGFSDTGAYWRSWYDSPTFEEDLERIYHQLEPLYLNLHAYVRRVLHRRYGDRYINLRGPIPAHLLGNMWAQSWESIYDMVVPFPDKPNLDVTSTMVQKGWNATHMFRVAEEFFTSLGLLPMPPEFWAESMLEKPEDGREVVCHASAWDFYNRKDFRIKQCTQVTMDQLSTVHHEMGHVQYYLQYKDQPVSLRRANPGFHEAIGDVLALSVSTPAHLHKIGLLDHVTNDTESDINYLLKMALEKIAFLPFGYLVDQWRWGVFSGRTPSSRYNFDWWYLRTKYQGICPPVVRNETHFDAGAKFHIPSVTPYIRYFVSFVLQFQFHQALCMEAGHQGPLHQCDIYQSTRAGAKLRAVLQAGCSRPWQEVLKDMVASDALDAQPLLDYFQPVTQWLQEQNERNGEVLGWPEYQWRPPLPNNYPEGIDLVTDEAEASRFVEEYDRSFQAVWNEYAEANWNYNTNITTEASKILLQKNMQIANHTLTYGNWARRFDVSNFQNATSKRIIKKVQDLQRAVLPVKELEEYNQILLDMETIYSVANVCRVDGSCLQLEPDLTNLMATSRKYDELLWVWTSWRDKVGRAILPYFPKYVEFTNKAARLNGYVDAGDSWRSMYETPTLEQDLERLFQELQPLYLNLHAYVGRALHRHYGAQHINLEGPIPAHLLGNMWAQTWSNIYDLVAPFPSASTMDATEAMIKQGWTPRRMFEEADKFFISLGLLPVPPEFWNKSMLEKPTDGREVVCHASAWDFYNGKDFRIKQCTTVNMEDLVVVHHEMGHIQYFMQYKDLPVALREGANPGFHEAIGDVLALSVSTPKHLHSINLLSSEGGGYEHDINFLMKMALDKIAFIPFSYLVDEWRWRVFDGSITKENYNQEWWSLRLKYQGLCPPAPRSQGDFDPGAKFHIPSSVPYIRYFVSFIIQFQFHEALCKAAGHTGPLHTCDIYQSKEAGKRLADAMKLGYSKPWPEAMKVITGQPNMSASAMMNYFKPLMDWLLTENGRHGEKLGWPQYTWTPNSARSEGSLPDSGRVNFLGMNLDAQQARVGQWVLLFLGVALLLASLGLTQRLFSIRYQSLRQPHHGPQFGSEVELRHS
Assay: biochemical
Assay type: tissue-based, Lung
Settings: not given

Compound	IC50
Nc1nc2c(ncn2COC(CO)CO)c(=O)[nH]1 [GANCICLOVIR]	Not Active
CC1=Nc2ccc(Cl)cc2S(=O)(=O)N1 [DIAZOXIDE]	Not Active
CC(C)(Oc1ccc(CCNC(=O)c2ccc(Cl)cc2)cc1)C(=O)O [BEZAFIBRATE]	Not Active
CC(C)n1c(/C=C/C(O)CC(O)CC(=O)O)c(-c2ccc(F)cc2)c2ccccc21 (centres undefined) [FLUVASTATIN]	Not Active

System: not listed separately
Assay: DRUGMATRIX: Interleukin IL-1 radioligand binding (ligand: [125I] interleukin 1beta)
Assay type: cell membranes, Membrane
Settings: nih3t3; Not Active = under 50% inhibition at 10 µM

Compound	IC50	Ki
Nc1nc2c(ncn2COC(CO)CO)c(=O)[nH]1 [GANCICLOVIR]	Not Active	Not Active
CC1=Nc2ccc(Cl)cc2S(=O)(=O)N1 [DIAZOXIDE]	Not Active	Not Active
CC(C)(Oc1ccc(CCNC(=O)c2ccc(Cl)cc2)cc1)C(=O)O [BEZAFIBRATE]	Not Active	Not Active
CC(C)n1c(/C=C/C(O)CC(O)CC(=O)O)c(-c2ccc(F)cc2)c2ccccc21 (centres undefined) [FLUVASTATIN]	Not Active	Not Active

System: not listed separately
Assay: DRUGMATRIX: GABAA, Muscimol, Central radioligand binding (ligand: [3H] Muscimol)
Assay type: cell membranes, Rattus norvegicus, Wistar, Brain, Membrane
Settings: Not Active = under 50% inhibition at 10 µM

Compound	IC50	Ki
Nc1nc2c(ncn2COC(CO)CO)c(=O)[nH]1 [GANCICLOVIR]	Not Active	Not Active
CC1=Nc2ccc(Cl)cc2S(=O)(=O)N1 [DIAZOXIDE]	Not Active	Not Active
CC(C)(Oc1ccc(CCNC(=O)c2ccc(Cl)cc2)cc1)C(=O)O [BEZAFIBRATE]	Not Active	Not Active
CC(C)n1c(/C=C/C(O)CC(O)CC(=O)O)c(-c2ccc(F)cc2)c2ccccc21 (centres undefined) [FLUVASTATIN]	Not Active	Not Active

Target: Substance-P receptor (Homo sapiens, UniProt P25103); also: in other assays of this panel Not Active means under 50% inhibition at 10 µM
Sequence (P25103 whole entry): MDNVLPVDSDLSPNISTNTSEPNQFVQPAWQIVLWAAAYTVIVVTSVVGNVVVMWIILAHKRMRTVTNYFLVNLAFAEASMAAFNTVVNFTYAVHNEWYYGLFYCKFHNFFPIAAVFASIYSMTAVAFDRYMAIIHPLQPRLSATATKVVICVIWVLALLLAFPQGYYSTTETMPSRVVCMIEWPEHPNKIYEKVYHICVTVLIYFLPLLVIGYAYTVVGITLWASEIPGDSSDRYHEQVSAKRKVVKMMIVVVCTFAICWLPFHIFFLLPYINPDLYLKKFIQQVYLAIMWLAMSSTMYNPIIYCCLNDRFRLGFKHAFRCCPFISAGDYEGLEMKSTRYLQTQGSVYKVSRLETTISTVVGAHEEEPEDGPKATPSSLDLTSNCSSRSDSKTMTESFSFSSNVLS
Assay: not given
Assay type: cell membranes, CHO, Membrane
Settings: cho

Compound	IC50
Nc1nc2c(ncn2COC(CO)CO)c(=O)[nH]1 [GANCICLOVIR]	Not Active
CC1=Nc2ccc(Cl)cc2S(=O)(=O)N1 [DIAZOXIDE]	Not Active
CC(C)(Oc1ccc(CCNC(=O)c2ccc(Cl)cc2)cc1)C(=O)O [BEZAFIBRATE]	Not Active
CC(C)n1c(/C=C/C(O)CC(O)CC(=O)O)c(-c2ccc(F)cc2)c2ccccc21 (centres undefined) [FLUVASTATIN]	Not Active

Target: C-C chemokine receptor type 5 (Homo sapiens, UniProt P51681); also: in other assays of this panel Not Active means under 50% inhibition at 10 µM
Sequence (P51681 whole entry): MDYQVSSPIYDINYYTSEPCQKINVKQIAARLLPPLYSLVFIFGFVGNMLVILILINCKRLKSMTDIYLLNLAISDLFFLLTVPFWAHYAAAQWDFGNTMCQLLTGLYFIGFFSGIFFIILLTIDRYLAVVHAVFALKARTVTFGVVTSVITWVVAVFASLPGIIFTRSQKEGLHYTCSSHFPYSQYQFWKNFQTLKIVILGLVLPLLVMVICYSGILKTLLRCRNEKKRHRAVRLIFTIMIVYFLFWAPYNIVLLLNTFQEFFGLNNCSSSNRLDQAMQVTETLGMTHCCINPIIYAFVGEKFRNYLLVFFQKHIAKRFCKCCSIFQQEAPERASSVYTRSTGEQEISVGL
Assay: not given
Assay type: cell membranes, Membrane
Settings: hek293

Compound	IC50
Nc1nc2c(ncn2COC(CO)CO)c(=O)[nH]1 [GANCICLOVIR]	Not Active
CC1=Nc2ccc(Cl)cc2S(=O)(=O)N1 [DIAZOXIDE]	Not Active
CC(C)(Oc1ccc(CCNC(=O)c2ccc(Cl)cc2)cc1)C(=O)O [BEZAFIBRATE]	Not Active
CC(C)n1c(/C=C/C(O)CC(O)CC(=O)O)c(-c2ccc(F)cc2)c2ccccc21 (centres undefined) [FLUVASTATIN]	Not Active

Target: T3, Calcitonin receptor (Homo sapiens, UniProt P30988); also: in other assays of this panel Not Active means under 50% inhibition at 10 µM
T3 sequence (P30988 whole entry): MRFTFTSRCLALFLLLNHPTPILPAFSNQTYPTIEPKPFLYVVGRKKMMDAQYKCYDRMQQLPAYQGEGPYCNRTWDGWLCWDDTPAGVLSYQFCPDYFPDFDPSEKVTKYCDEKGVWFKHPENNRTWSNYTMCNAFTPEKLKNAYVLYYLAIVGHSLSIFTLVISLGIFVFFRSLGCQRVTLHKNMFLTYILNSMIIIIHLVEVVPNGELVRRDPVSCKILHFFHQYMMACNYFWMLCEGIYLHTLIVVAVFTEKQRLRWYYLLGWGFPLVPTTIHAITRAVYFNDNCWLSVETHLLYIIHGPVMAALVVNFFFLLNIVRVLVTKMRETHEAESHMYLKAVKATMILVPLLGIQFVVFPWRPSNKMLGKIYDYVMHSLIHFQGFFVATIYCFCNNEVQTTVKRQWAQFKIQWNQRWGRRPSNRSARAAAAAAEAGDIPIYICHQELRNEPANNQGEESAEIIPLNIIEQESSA
Assay: not given
Assay type: cell membranes, Membrane
Settings: t47d

Compound	IC50
Nc1nc2c(ncn2COC(CO)CO)c(=O)[nH]1 [GANCICLOVIR]	Not Active
CC1=Nc2ccc(Cl)cc2S(=O)(=O)N1 [DIAZOXIDE]	Not Active
CC(C)(Oc1ccc(CCNC(=O)c2ccc(Cl)cc2)cc1)C(=O)O [BEZAFIBRATE]	Not Active
CC(C)n1c(/C=C/C(O)CC(O)CC(=O)O)c(-c2ccc(F)cc2)c2ccccc21 (centres undefined) [FLUVASTATIN]	Not Active

Target: Glycine receptor (Rattus norvegicus, UniProt P22771+P24524+P07727+P20781); also: in other assays of this panel Not Active means under 50% inhibition at 10 µM
Assay: not given
Assay type: cell membranes, Wistar, Spinal cord, Membrane
Settings: not given

Compound	IC50
Nc1nc2c(ncn2COC(CO)CO)c(=O)[nH]1 [GANCICLOVIR]	Not Active
CC1=Nc2ccc(Cl)cc2S(=O)(=O)N1 [DIAZOXIDE]	Not Active
CC(C)(Oc1ccc(CCNC(=O)c2ccc(Cl)cc2)cc1)C(=O)O [BEZAFIBRATE]	Not Active
CC(C)n1c(/C=C/C(O)CC(O)CC(=O)O)c(-c2ccc(F)cc2)c2ccccc21 (centres undefined) [FLUVASTATIN]	Not Active

System: not listed separately
Assay: DRUGMATRIX: Nicotinic Acetylcholine radioligand binding (ligand: [125I] Epibatidine)
Assay type: cell membranes, Membrane
Settings: imr-32; Not Active = under 50% inhibition at 10 µM

Compound	IC50	Ki
Nc1nc2c(ncn2COC(CO)CO)c(=O)[nH]1 [GANCICLOVIR]	Not Active	Not Active
CC1=Nc2ccc(Cl)cc2S(=O)(=O)N1 [DIAZOXIDE]	Not Active	Not Active
CC(C)(Oc1ccc(CCNC(=O)c2ccc(Cl)cc2)cc1)C(=O)O [BEZAFIBRATE]	Not Active	Not Active
CC(C)n1c(/C=C/C(O)CC(O)CC(=O)O)c(-c2ccc(F)cc2)c2ccccc21 (centres undefined) [FLUVASTATIN]	Not Active	Not Active

Target: Mitogen-activated protein kinase 3 (Homo sapiens, UniProt P27361)
Sequence (P27361 whole entry): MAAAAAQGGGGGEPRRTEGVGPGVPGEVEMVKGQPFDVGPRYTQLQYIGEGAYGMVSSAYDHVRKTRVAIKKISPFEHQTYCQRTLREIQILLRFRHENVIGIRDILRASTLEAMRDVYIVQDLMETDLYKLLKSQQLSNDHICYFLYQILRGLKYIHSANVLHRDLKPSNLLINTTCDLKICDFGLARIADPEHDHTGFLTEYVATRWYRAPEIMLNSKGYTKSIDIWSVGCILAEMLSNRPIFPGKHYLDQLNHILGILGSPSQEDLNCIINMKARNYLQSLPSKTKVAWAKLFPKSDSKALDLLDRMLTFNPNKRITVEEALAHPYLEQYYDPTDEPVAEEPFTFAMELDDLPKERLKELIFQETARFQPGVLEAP
Assay: DRUGMATRIX: Protein Serine/Threonine Kinase, ERK1 enzyme inhibition (substrate: Myelin Basic Protein)
Design: species or system Escherichia coli
Settings: Not Active = under 50% inhibition at 10 µM

Compound	IC50
Nc1nc2c(ncn2COC(CO)CO)c(=O)[nH]1 [GANCICLOVIR]	Not Active
CC1=Nc2ccc(Cl)cc2S(=O)(=O)N1 [DIAZOXIDE]	Not Active
CC(C)(Oc1ccc(CCNC(=O)c2ccc(Cl)cc2)cc1)C(=O)O [BEZAFIBRATE]	Not Active
CC(C)n1c(/C=C/C(O)CC(O)CC(=O)O)c(-c2ccc(F)cc2)c2ccccc21 (centres undefined) [FLUVASTATIN]	Not Active

From ChEMBL document CHEMBL1909046, “DrugMatrix in vitro pharmacology data”
